Twelve compounds from patent US20230013823A1, “INHIBITORS OF HUMAN IMMUNODEFICIENCY VIRUS REPLICATION” (VIV HEALTHCARE UK (No. 5) LIMITED, priority 2019, published 2023) can be followed below.

Data set [1] has as its system recombinant NL4-3 virus (Renilla luciferase in nef). Kind of data set: HIV cell culture assay (antiviral activity, luciferase readout in MT-2 cells). The class given is cell-based. The note with it: Renilla, NL43. In outline:
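MT-2 cells were infected for 4-5 days with 293T-derived recombinant NL4-3 reporter virus in the presence of serially diluted compound. Antiviral activity was quantified as luciferase activity using a live-cell substrate. EC50 was derived from the median effect equation.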

Data set [2] is described as follows: Compound cytotoxicity, XTT-based colorimetric assay. It counts as cell-based. To be noted: human; uninfected MT2 cells, day 4, XTT. The procedure:
Compound cytotoxicity and the corresponding CC50 values were determined using the same protocol as described in the antiviral assay except that uninfected cells were used. Cytotoxicity was assessed on day 4 in uninfected MT2 cells by using an XTT (2,3-bis[2-Methoxy-4-nitro-5-sulfophenyl]-2H-tetrazolium-5-carboxyanilide inner salt)-based colorimetric assay (Sigma-Aldrich, St Louis, Mo.).
For orientation: Formazan colour is commonly taken as a measure of viable cells.

pEC50: −log10 of the molar value.

In general, pEC50 refers to −log10 of the EC50, conventionally taken in molar units. One may read the CC50 as the concentration giving 50% cytotoxicity. As for `CC(F)(F)Cn1ccc(-c2ccc3c(=O)n(-c4ccc(Cl)c5c(NS(=O)(=O)C6CC6)nn(CC(F)F)c45)c([C@H](Cc4cc(F)cc(F)c4)NC(=O)Cn4nc(C(F)F)c5c4C(F)(F)[C@@H]4C[C@H]54)nc3c2)n1` (atropisomer, axis not shown; (P)) [Example 69, N—((S)-1-((3P)-3-(4-chloro-3-(cyclopropanesulfonamido)-1-(2,2-difluoroethyl)-1H-indazol-7-yl)-7-(1-(2,2-difluoropropyl)-1H-pyrazol-3-yl)-4-oxo-3,4-dihydroquinazolin-2-yl)-2-(3,5-difluorophenyl)ethyl)-2-((3bS,4aR)-3-(difluoromethyl)-5,5-difluoro-3b,4,4a,5-tetrahydro-1H-cyclopropa[3,4]cyclopenta[1,2-c]pyrazol-1-yl)acetamide], in data set [1], the pEC50 is 9.80. The same compound came in with a CC50 at 4 days in data set [2] above 100000 pM.
`Cn1nc(NS(C)(=O)=O)c2c(Cl)ccc(-n3c([C@H](Cc4cc(F)cc(F)c4)NC(=O)Cn4ccc(C5CC5)n4)nc4cc(-c5ccn(CC(C)(F)F)n5)ccc4c3=O)c21` (atropisomer, axis not shown; (P)) [Example 61, (S)—N-(1-((3P)-3-(4-chloro-1-methyl-3-(methylsulfonamido)-1H-indazol-7-yl)-7-(1-(2,2-difluoropropyl)-1H-pyrazol-3-yl)-4-oxo-3,4-dihydroquinazolin-2-yl)-2-(3,5-difluorophenyl)ethyl)-2-(3-cyclopropyl-1H-pyrazol-1-yl)acetamide]: the pEC50 in data set [1] was 10.24. In data set [2], this compound had a CC50 at 4 days above 100000 pM.
In the same order, the values of `COc1nccc(-c2ccc3c(=O)n(-c4ccc(Cl)c5c(NS(C)(=O)=O)nn(C)c45)c([C@H](Cc4cc(F)cc(F)c4)NC(=O)Cn4nc(C(F)F)c5c4C(F)(F)[C@@H]4C[C@H]54)nc3c2)n1` (atropisomer, axis not shown; (P)) [Example 5, N—((S)-1-((3P)-3-(4-chloro-1-methyl-3-(methylsulfonamido)-1H-indazol-7-yl)-7-(2-methoxypyrimidin-4-yl)-4-oxo-3,4-dihydroquinazolin-2-yl)-2-(3,5-difluorophenyl)ethyl)-2-((3bS,4aR)-3-(difluoromethyl)-5,5-difluoro-3b,4,4a,5-tetrahydro-1H-cyclopropa[3,4]cyclopenta[1,2-c]pyrazol-1-yl)acetamide] are 10.08 and above 500000 pM.
With `Cn1nc(NS(C)(=O)=O)c2c(Cl)ccc(-n3c([C@H](Cc4cc(F)cc(F)c4)NC(=O)Cn4nc(C(F)F)c5c4C(F)(F)[C@@H]4C[C@H]54)nc4cc(-c5ccc6scnc6c5)ccc4c3=O)c21` (atropisomer, axis not shown; (P)) [Example 45, N—((S)-1-(7-(benzo[d]thiazol-5-yl)-(3P)-3-(4-chloro-1-methyl-3-(methylsulfonamido)-1H-indazol-7-yl)-4-oxo-3,4-dihydroquinazolin-2-yl)-2-(3,5-difluorophenyl)ethyl)-2-((3bS,4aR)-3-(difluoromethyl)-5,5-difluoro-3b,4,4a,5-tetrahydro-1H-cyclopropa[3,4]cyclopenta[1,2-c]pyrazol-1-yl)acetamide], in data set [1], the pEC50 was 9.36. Besides, in data set [2], the CC50 at 4 days was above 100000 pM.
Consider `Cn1nc(NS(C)(=O)=O)c2c(Cl)ccc(-n3c([C@H](Cc4cc(F)cc(F)c4)NC(=O)Cn4nc(C(F)F)c5c4C(F)(F)[C@@H]4C[C@H]54)nc4cc(-c5ccc6ncsc6c5)ccc4c3=O)c21` (atropisomer, axis not shown; (P)) [Example 44, N—((S)-1-(7-(benzo[d]thiazol-6-yl)-(3P)-3-(4-chloro-1-methyl-3-(methylsulfonamido)-1H-indazol-7-yl)-4-oxo-3,4-dihydroquinazolin-2-yl)-2-(3,5-difluorophenyl)ethyl)-2-((3bS,4aR)-3-(difluoromethyl)-5,5-difluoro-3b,4,4a,5-tetrahydro-1H-cyclopropa[3,4]cyclopenta[1,2-c]pyrazol-1-yl)acetamide], for which the pEC50 in data set [1] was 9.21. Further, in data set [2], the CC50 at 4 days is above 100000 pM.
Take `Cn1nc(NS(C)(=O)=O)c2c(Cl)ccc(-n3c([C@H](Cc4cc(F)cc(F)c4)NC(=O)Cn4nc(C(F)F)c5c4C(F)(F)[C@@H]4C[C@H]54)nc4cc(-c5ccn(CCC(C)(F)F)n5)ccc4c3=O)c21` (atropisomer, axis not shown; (P)) [Example 52, N—((S)-1-((3P)-3-(4-chloro-1-methyl-3-(methylsulfonamido)-1H-indazol-7-yl)-7-(1-(3,3-difluorobutyl)-1H-pyrazol-3-yl)-4-oxo-3,4-dihydroquinazolin-2-yl)-2-(3,5-difluorophenyl)ethyl)-2-((3bS,4aR)-3-(difluoromethyl)-5,5-difluoro-3b,4,4a,5-tetrahydro-1H-cyclopropa[3,4]cyclopenta[1,2-c]pyrazol-1-yl)acetamide]: the pEC50 in data set [1] was 10.17. Besides, in data set [2], the CC50 at 4 days is above 100000 pM.
Taken in the same sequence, the figures for `Cn1nc(NS(C)(=O)=O)c2c(Cl)ccc(-n3c([C@H](Cc4cc(F)cc(F)c4)NC(=O)Cn4nc(C(F)F)c5c4C(F)(F)[C@@H]4C[C@H]54)nc4cc(-c5ccnc(C(F)(F)F)n5)ccc4c3=O)c21` (atropisomer, axis not shown; (P)) [Example 27, N—((S)-1-((3P)-3-(4-chloro-1-methyl-3-(methylsulfonamido)-1H-indazol-7-yl)-4-oxo-7-(2-(trifluoromethyl)pyrimidin-4-yl)-3,4-dihydroquinazolin-2-yl)-2-(3,5-difluorophenyl)ethyl)-2-((3bS,4aR)-3-(difluoromethyl)-5,5-difluoro-3b,4,4a,5-tetrahydro-1H-cyclopropa[3,4]cyclopenta[1,2-c]pyrazol-1-yl)acetamide] were 10.18 and above 100000 pM.
Take `CS(=O)(=O)Nc1nn(CCCF)c2c(-n3c([C@H](Cc4cc(F)cc(F)c4)NC(=O)Cn4nc(C(F)F)c5c4C(F)(F)[C@@H]4C[C@H]54)nc4cc(-c5ccn(CC(F)(F)C(F)F)n5)ccc4c3=O)ccc(Cl)c12` [Example 67, N—((S)-1-((3P)-3-(4-chloro-1-(3-fluoropropyl)-3-(methylsulfonamido)-1H-indazol-7-yl)-4-oxo-7-(1-(2,2,3,3-tetrafluoropropyl)-1H-pyrazol-3-yl)-3,4-dihydroquinazolin-2-yl)-2-(3,5-difluorophenyl)ethyl)-2-((3bS,4aR)-3-(difluoromethyl)-5,5-difluoro-3b,4,4a,5-tetrahydro-1H-cyclopropa[3,4]cyclopenta[1,2-c]pyrazol-1-yl)acetamide]: in data set [1], the pEC50 was 10.31. Besides, in data set [2], the CC50 at 4 days was above 100000 pM.
For `Cn1nc(NS(C)(=O)=O)c2c(Cl)ccc(-n3c([C@H](Cc4cc(F)cc(F)c4)NC(=O)Cn4nc(C(F)F)c5c4C(F)(F)[C@@H]4C[C@H]54)nc4cc(-c5nc(C(F)(F)F)ccc5F)ccc4c3=O)c21` (atropisomer, axis not shown; (P)) [Example 21, N—((S)-1-((3P)-3-(4-chloro-1-methyl-3-(methylsulfonamido)-1H-indazol-7-yl)-7-(3-fluoro-6-(trifluoromethyl)pyridin-2-yl)-4-oxo-3,4-dihydroquinazolin-2-yl)-2-(3,5-difluorophenyl)ethyl)-2-((3bS,4aR)-3-(difluoromethyl)-5,5-difluoro-3b,4,4a,5-tetrahydro-1H-cyclopropa[3,4]cyclopenta[1,2-c]pyrazol-1-yl)acetamide], in data set [1], the pEC50 was 9.82. The compound also had a CC50 at 4 days in data set [2] above 100000 pM.
On to `Cn1nc(NS(C)(=O)=O)c2c(Cl)ccc(-n3c([C@H](Cc4cc(F)cc(F)c4)NC(=O)Cn4nc(C(F)F)c5c4C(F)(F)[C@@H]4C[C@H]54)nc4cc(-c5ccc6ocnc6c5)ccc4c3=O)c21` (atropisomer, axis not shown; (P)) [Example 46, N—((S)-1-(7-(benzo[d]oxazol-5-yl)-(3P)-3-(4-chloro-1-methyl-3-(methylsulfonamido)-1H-indazol-7-yl)-4-oxo-3,4-dihydroquinazolin-2-yl)-2-(3,5-difluorophenyl)ethyl)-2-((3bS,4aR)-3-(difluoromethyl)-5,5-difluoro-3b,4,4a,5-tetrahydro-1H-cyclopropa[3,4]cyclopenta[1,2-c]pyrazol-1-yl)acetamide], for which the pEC50 in data set [1] was 9.47. This compound also returned a CC50 at 4 days in data set [2] above 100000 pM.
Taken in the same sequence, the figures for `Cn1nc(NS(C)(=O)=O)c2c(Cl)ccc(-n3c([C@H](Cc4cc(F)cc(F)c4)NC(=O)Cn4ccc(C5CC5)n4)nc4cc(-c5ccn(CC(F)(F)C(F)F)n5)ccc4c3=O)c21` (atropisomer, axis not shown; (P)) [Example 63, (S)—N-(1-((3P)-3-(4-chloro-1-methyl-3-(methylsulfonamido)-1H-indazol-7-yl)-4-oxo-7-(1-(2,2,3,3-tetrafluoropropyl)-1H-pyrazol-3-yl)-3,4-dihydroquinazolin-2-yl)-2-(3,5-difluorophenyl)ethyl)-2-(3-cyclopropyl-1H-pyrazol-1-yl)acetamide] were 10.37 and above 100000 pM.
Taken in the same sequence, the figures for `COc1nc(C)cc(-c2ccc3c(=O)n(-c4ccc(Cl)c5c(NS(C)(=O)=O)nn(C)c45)c([C@H](Cc4cc(F)cc(F)c4)NC(=O)Cn4nc(C(F)F)c5c4C(F)(F)[C@@H]4C[C@H]54)nc3c2)n1` (atropisomer, axis not shown; (P)) [Example 16, N—((S)-1-((3P)-3-(4-chloro-1-methyl-3-(methylsulfonamido)-1H-indazol-7-yl)-7-(2-methoxy-6-methylpyrimidin-4-yl)-4-oxo-3,4-dihydroquinazolin-2-yl)-2-(3,5-difluorophenyl)ethyl)-2-((3bS,4aR)-3-(difluoromethyl)-5,5-difluoro-3b,4,4a,5-tetrahydro-1H-cyclopropa[3,4]cyclopenta[1,2-c]pyrazol-1-yl)acetamide] were 9.96 and above 500000 pM.
